Key:
[1] = molecular target: T1, human TRPV1 heterologously expressed in CHO cells (Homo sapiens, UniProt Q8NER1); assay: functional 45Ca2+ uptake assay; type: cell-based
[2] = molecular target: T1, human TRPV1 heterologously expressed in CHO cells; assay: binding competition assay with [3H]RTX; conditions: for fold greater potency than the racemate in binding affinity: 2R vs 2, 3R vs 3; for fold less potent than the racemate in binding affinity: 2S vs 2, 3S vs 3
[3] = human TRPV1, within ca. x-fold of RTX

T1 sequence (Q8NER1 whole entry): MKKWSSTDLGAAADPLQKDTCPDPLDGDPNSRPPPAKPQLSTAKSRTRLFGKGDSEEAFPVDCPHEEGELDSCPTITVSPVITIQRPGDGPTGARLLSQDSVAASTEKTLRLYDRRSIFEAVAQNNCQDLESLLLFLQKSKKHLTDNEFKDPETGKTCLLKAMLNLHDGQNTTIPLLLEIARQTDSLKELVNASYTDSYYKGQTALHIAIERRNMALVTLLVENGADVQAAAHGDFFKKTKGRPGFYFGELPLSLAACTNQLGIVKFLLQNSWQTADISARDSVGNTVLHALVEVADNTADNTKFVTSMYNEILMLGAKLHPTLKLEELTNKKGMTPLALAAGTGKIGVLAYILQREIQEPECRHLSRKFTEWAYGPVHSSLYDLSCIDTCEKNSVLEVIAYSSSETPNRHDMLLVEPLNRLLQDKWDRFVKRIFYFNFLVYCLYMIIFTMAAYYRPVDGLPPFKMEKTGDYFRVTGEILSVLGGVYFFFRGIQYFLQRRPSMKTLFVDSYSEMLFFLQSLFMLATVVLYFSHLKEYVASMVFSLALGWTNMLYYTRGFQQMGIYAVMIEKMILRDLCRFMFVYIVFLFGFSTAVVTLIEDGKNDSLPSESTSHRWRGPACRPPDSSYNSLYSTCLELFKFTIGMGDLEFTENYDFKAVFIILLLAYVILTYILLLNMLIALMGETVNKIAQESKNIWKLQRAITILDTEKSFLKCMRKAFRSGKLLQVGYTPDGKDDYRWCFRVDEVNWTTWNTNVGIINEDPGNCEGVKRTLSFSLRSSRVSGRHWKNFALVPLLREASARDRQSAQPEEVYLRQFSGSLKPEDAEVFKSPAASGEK

COc1cc(CNC(=S)NC[C@H](COC(=O)C(C)(C)C)Cc2ccc(C(C)(C)C)cc2)ccc1O [Compound 2R]
fold greater potency than the racemate 2 in agonism ([1]; hTRPV1): 1.5 fold
fold greater potency than the racemate in binding affinity ([2]; hTRPV1): 2 fold

CC(C)(C)C(=O)OC[C@H](CNC(=S)NCc1ccc(NS(C)(=O)=O)c(F)c1)Cc1ccc(C(C)(C)C)cc1 [Compound 3S]
fold less potency compared to 3 in antagonism ([1]; hTRPV1): 1.3 fold
fold less potent than the racemate in binding affinity ([2]; hTRPV1): 3 fold

CC(C)(C)C(=O)OCC(CNC(=S)NCc1ccc(NS(C)(=O)=O)c(F)c1)Cc1ccc(C(C)(C)C)cc1 (stereo not drawn) [Compound 3]
fold less potent than I-RTX in antagonism ([1]; hTRPV1): ~20 fold
fold less potent than I-RTX in binding affinity ([2]; hTRPV1): ca. 2 fold

COc1cc(CNC(=S)NC[C@@H](COC(=O)C(C)(C)C)Cc2ccc(C(C)(C)C)cc2)ccc1O [Compound 2S]
fold less potent than 2 in agonism ([1]; hTRPV1): 7 fold
fold less potent than the racemate in binding affinity ([2]; hTRPV1): 1.1 fold

CC(C)(C)C(=O)OC[C@@H](CNC(=S)NCc1ccc(NS(C)(=O)=O)c(F)c1)Cc1ccc(C(C)(C)C)cc1 [Compound 3R]
fold greater potency than 3 in antagonism ([1]; hTRPV1): 1.3 fold
fold greater potency than the racemate in binding affinity ([2]; hTRPV1): 1.3 fold

COc1cc(CNC(=S)NCC(COC(=O)C(C)(C)C)Cc2ccc(C(C)(C)C)cc2)ccc1O (stereo not drawn) [Compound 2]
fold of the potency of RTX in agonism [1, 3]: ~1.5 fold
fold of the potency of RTX in binding affinity [2, 3]: ca. 5 fold

Source: paper PMC6957263 (Bioorganic & medicinal chemistry letters, 2013)
